According to patent publication US11039618B2, “Metam salts and polysulfide soil treatment” (Tessenderlo Kerley, Inc, priority 2016, dated 2021):

How the values were obtained:
[1] = test system: artificially infested V. dahliae soil; test: Greenhouse eggplant bioassay (plant height) in treated, artificially infested V. dahliae soil; format: in vivo; conditions: preliminary; for eggplant height Jul. 27, 2017: soil treated Jun. 27, 2017, eggplant transplanted July 13, rates gal/acre on 12 inch soil depth, letters after value = statistical grouping, untreated 118; for eggplant height Aug. 4, 2017 / eggplant height Aug. 10, 2017 / eggplant height Aug. 17, 2017: soil treated Jun. 27, 2017, letters = statistical grouping; for eggplant height Aug. 4, 2017: untreated 124; for eggplant height Aug. 10, 2017: untreated 134
Description: In these tests, greenhouse and microplot trials were done to further define the LSS efficacy as stand-alone treatment as well as in combination with Sectagon®. A large number of soil samples were treated using the rates below, expressed as gallons equivalent per acre of (LSS), a 3.07 pounds Calcium Polysulfide per gallon Liquid Lime Sulfur Solution, and Sectagon®, a 4.25 pound per gallon sodium methyldithiocarbamate (metam) solution. Each treatment was performed on six samples to provide statistically valid data. As always, though the treatment is defined in terms of gallons per acre of two products, the testing is with a mixture.
To minimize sample variability that was apparent in certain previous tests, these tests were a greenhouse study, using artificially infested V. dahliae soil. A soil derived from a Romaine lettuce field in Salinas, Calif. (collected September 2015) was confirmed (January 2017) to be highly infested with V. dahliae. Romaine lettuce were grown in the V. dahliae infested soil until microsclerotia built up in the leaves. Infested leaves were harvested, dried, crumbled, and mixed with autoclaved sand. Samples of the mixture were tested for V. dahliae. The mixture was used for the greenhouse study and for the production of pathogen bags for the microplot study.
Artificially infested V. dahliae soil were treated according to the above list. The greenhouse/eggplant study utilize a sterile sand+10% potting mix soil. The inoculated soil was pre-irrigated to ca. 70% field capacity for 14 days, and was then soil placed in various containers, each of which was then treated with appropriate LSS/Metam mixture in a certain volume of water. The soil was thoroughly mixed/agitated, and left sealed for 24 hours to simulate a water seal or tarp. The container was then unsealed 24 hours after application and allowed to sit for 14 days and then mixed and apportioned into 4″ pots for growing eggplant as the bioassay.
To simulate a situation closer to field conditions, a field based microplot study was also established for a few of the above tests, using eggplant. The greenhouse/eggplant study utilized a sterile sand+10% potting mix soil; the inoculated soil was pre-irrigated to ca. 70% field capacity for 14 days; soil was placed in a bucket, treated with appropriate LSS/Metam mixture in correct volume of water, thoroughly mixed/agitated, and left sealed for 24 hours to simulate a water seal or tarp. The bucket was unsealed at 24 hours after application and allowed to sit for 14 days and then mixed and apportioned into 4″ pots for growing eggplant as the bioassay. Seven days after treatment, one soil sample per replicate was taken. V. dahliae control efficacy was assessed according to the methods below, but only on selected treatments due to time pressures. At 14 days after treatment, eggplants were grown in the remaining soil to assess treatment effects on vigor and growth. […] Microplots were located at the USDA Research Field at Spence Road, Salinas, Calif. Treatments were selected based on the results of the previous greenhouse study. Trial site was pre-irrigated for 7 days before placing the Verticillium, V. dahliae, sample bags in the various treatments. Sprinkler irrigation was used to establish 60-80% soil moisture. Four V. dahliae samples per replicate were artificially introduced at 4 and 8 inches depth. Treatments were applied with micro emitter and drip across the microplot. The treatment using a 2 hour drip irrigation period was anticipated to provide penetration to 12 inch depth. After treatment, microplots remained untarped. After 5-7 days V. dahliae samples were recovered.
All LSS and Sectagon® treatments were made, mixing the treatment well with the soil and covering to prevent outgassing on Jun. 27, 2017. On June 28 the lids were removed lids. […]

Verticillium = test: Jar test 2016: Verticillium microsclerotia colonies in treated soil, dry soil plating on NP-10; format: cell-based, Verticillium dahliae; conditions: 2016 test; microsclerotia colonies per gram of soil post-treatment; soil 20% water content; 4 replicates
Description: These investigations were performed under laboratory conditions in an initial jar test. We also investigated the pathogen control efficacy of LSS treatments, at 30 gal/acre (90 pounds/acre or 101 Kg/ha of calcium polysulfide) and at 90 gal/acre (276 pounds/acre or 310 Kg/ha of calcium polysulfide), and combined Metam/LSS treatments using Sectagon® brand metam at 20 gal/acre Metam (84 pounds/acre or 94 Kg/ha of metam sodium) with 40 gal/acre LSS (122 pounds/acre or 138 Kg/ha of calcium polysulfide); and at 30 gal/acre Metam (126 pounds/acre or […] of metam sodium) with 20 gal/acre LSS (60 pounds/acre or 67 kg/ha of calcium polysulfide). […] This may be due to lower water saturation in the 2016 tests compared to the saturation in 2015 tests, which was near 100%.
Each treatment listed in Table 1 was replicated 4 times. Verticillium levels in soil were assessed by dry incubation on semi selective media (NP-10) method. Soil collected from a Romaine lettuce field in Salinas, Calif. was used for the investigation. […]
Experimental Setup: Seven treatments were installed in 4 replicates each. […] The equivalent of gal/acre was calculated on the assumption that on acre of soil has an average weight of 3,625,895 lbs. […] Afterwards, soil was split between the two laboratories and were assessed according to the method described.
Verticillium levels in soil were assessed by dry incubation on semi selective media (NP-10). […]
The quantity of Verticillium in soil was assessed by dry soil plating on NP-10 semi-selective medium. […] After that, remaining soil was gently washed off the plates and the number of Verticillium microsclerotia colonies were counted on each plate under a microscope. The number of microsclerotia colonies is used as a standard method to quantify Verticillium in soil and was extrapolated for 1 g soil.
Results were analyzed in a one-way ANOVA (P=0.05) and a Fisher LSD Post-Hoc test. […]
Verticillium assessments were performed parallel in two separate laboratories. […] The quantity of Verticillium in soil was assessed by dry soil plating on NP-10 semi-selective medium. […]

SMILES | eggplant height Jul. 27, 2017 [1] | eggplant height Aug. 4, 2017 [1] | eggplant height Aug. 10, 2017 [1] | eggplant height Aug. 17, 2017 ([1]; untreated 138) | eggplant height Aug. 17, 2017 ([1]; untreated 138, listed as comparative example 10) | Verticillium quantity (ms/g) Lab A (Verticillium) | Verticillium quantity (ms/g) Lab B (Verticillium)
CNC(=S)[S-].[Na+] [Sample 10, sodium methyldithiocarbamate] | 150abc mm | 160bcde mm | 169abcde mm | 171acbd mm | 171 mm |  | 
CNC(=S)[S-].[Na+] [Comp. Example 3, sodium methyldithiocarbamate] |  |  |  |  |  | 0.5 ± 0.5 ms/g | 12 ± 3 ms/g
CNC(=S)[S-].[Na+] [Sample 8, sodium methyldithiocarbamate] | 140abcde mm | 145 cdefg mm | 159 bcdef mm | 163bcde mm |  |  | 
CNC(=S)[S-].[Na+] [Sample 9, sodium methyldithiocarbamate] | 138bcdef mm | 150cdefg mm | 155cdefg mm | 160bcdef mm |  |  | 
